Data: US20050106173A1, “METHODS AND COMPOSITIONS FOR TREATING MALE SEXUAL DYSFUNCTION” (priority 2003, published 2005)

Legend:
Format in all cases: in vivo
[1] = system: castrated male Wistar rats; assay: Sexual activity of castrated male rats caged with female rats (mounting, sniffing and licking frequency); conditions: once daily for 30 days (yeast 1.2 ml/kg intragastric; testosterone propionate 2 mg/kg i.m.), day 29, two female rats in cage
Description: To test the ability of the EMF-treated AS2.502 cells to improve male sexual function, hormone levels, and sexual organ development, 50 healthy adult male Wistar rats (about 100-120 g body weight, 6-8 weeks old) were selected. Ten rats were randomly selected to be the normal control group, CK1 (uncastrated rats). Under anesthesia with pentobarbital (5%, at 45 mg/kg body weight), both testes (including the epididymis) of each of the remaining 40 rats were removed under sterile conditions. Immediately after castration, Penicillin G was injected at 20,000 U/kg body weight once daily for five consecutive days. The castrated rats were then randomly divided into four equal groups, designated as AY (for treatment with the activated yeast composition), NY (for treatment with the control yeast composition), CK2 (for treatment with testosterone propionate), and CK3 (for treatment with saline). Each rat was kept separately. The activated yeast composition was administered to the AY rats at 1.2 ml/kg body weight once daily for 30 days. […]
On the twenty-ninth day of the experiment, two female rats (100-120 g, 6-8 weeks old) were put into the same cage as each male rat and kept there for 30 minutes. The frequency of the male rat's sniffing and licking of the female rats, and the frequency of the male rat's mounting of the female rats were recorded in Table 2.

[2] = system: castrated male Wistar rats; assay: Wet weight of glandulae preputiales, seminal vesicle and prostate of castrated rats; conditions: once daily for 30 days, sacrificed day 31
Description: (§1) To test the ability of the EMF-treated AS2.502 cells to improve male sexual function, hormone levels, and sexual organ development, 50 healthy adult male Wistar rats (about 100-120 g body weight, 6-8 weeks old) were selected. Ten rats were randomly selected to be the normal control group, CK1 (uncastrated rats). Under anesthesia with pentobarbital (5%, at 45 mg/kg body weight), both testes (including the epididymis) of each of the remaining 40 rats were removed under sterile conditions. Immediately after castration, Penicillin G was injected at 20,000 U/kg body weight once daily for five consecutive days. The castrated rats were then randomly divided into four equal groups, designated as AY (for treatment with the activated yeast composition), NY (for treatment with the control yeast composition), CK2 (for treatment with testosterone propionate), and CK3 (for treatment with saline). Each rat was kept separately. The activated yeast composition was administered to the AY rats at 1.2 ml/kg body weight once daily for 30 days. The control yeast composition was administered to the NY rats and saline was administered to the CK3 rats at the same dosage. […]
Each male rat was sacrificed on the thirty-first day. […] The wet weight of the prostate and seminal vesicle was recorded in Table 2. […] The wet weight of the glandulae preputiales was also recorded in Table 2.

castrated Wistar rats [3] = assay: Erectile function by electrical stimulation (erection lag) in castrated rats; conditions: once daily for 30 days, day 31, stimulator 55 Hz and 4.5 mA
Description: as §1, with “150-180” for “100-120”, “8-10” for “6-8”
On the thirty-first day of the experiment, an electrical stimulator was used to measure the erectile function of the rats. […] The time needed for the penis to achieve erection (“the erection lag”) was recorded in Table 3.

castrated Wistar rats [4] = assay: Blood testosterone concentration by radio-immunoassay (RIA) in castrated rats; conditions: once daily for 30 days, blood after the erection test on day 31, RIA
Description: as §1, with “150-180” for “100-120”, “8-10” for “6-8”
Each rat was sacrificed after the erection test. Blood samples were collected from each rat, and the blood concentration of testosterone was determined by the standard radio-immunoassay (RIA) method.

CCC(=O)O[C@H]1CC[C@H]2[C@@H]3CCC4=CC(=O)CC[C@]4(C)[C@H]3CC[C@]12C [testosterone propionate]
Mounting Frequency Within a 30 min Period [1]: 12.3 ± 4.6 | Sniffing & Licking Frequency Within a 30 min Period [1]: 22.7 ± 4.6 | Glandulae Preputiales (wet weight) [2]: 89.5 ± 14.6 mg | Seminal Vesicle and Prostate (wet weight) [2]: 198.7 ± 42.6 mg | Erection Lag (castrated Wistar rats [3]): 19.3 ± 14.6 s | Testosterone Levels (castrated Wistar rats [4]): 124.17 ± 67.65 ng/dL
